This passage reports IC50 results from patent US12152038B2, “Vasopressin receptor antagonists and products and methods related thereto” (Neumora Therapeutics, Inc., priority 2017, dated 2024).

For assay [1], the target named is T1, human Arginine Vasopressin Receptor V2 (AVPR2) (Homo sapiens, UniProt P30518).
T1 construct: host or cells: 1321N1 (cAMPZen V2 assay ready frozen cells)
The assay is described as follows: Vasopressin V2 receptor antagonist assay (TR-FRET cAMP, 1321N1 cells). It counts as cell-based. As to the method: The purpose of the assay was to determine the inhibitory effect of synthesized compounds on the Vasopressin receptor 2. The assay was performed in commercially available 1321N1 cells expressing the human Arginine Vasopressin Receptor V2 (AVPR2) (Perkin Elmer #ES-363-CF). Arginine Vasopressin (AVP) evokes an increase in intracellular cAMP in these cells which is measured in a TR-FRET assay using a Europium cAMP tracer and ULight labelled antibody reagents contained in a LANCE Ultra cAMP kit (Perkin Elmer #TRF0263). Increases in cAMP in the assay result in a reduction in TR-FRET as the cAMP produced by the stimulated cells competes with the Eu-cAMP tracer for binding sites on the ULight labelled antibody. Test compounds were assessed for their ability to affect the magnitude of the response to AVP, with antagonists showing a concentration-dependent decrease in the AVP-mediated reduction in TR-FRET signal.
cAMPZen V2 assay ready cells were thawed at 37° C. and resuspended directly from frozen in 9 ml growth medium consisting of DMEM supplemented with 10% v/v fetal bovine serum, 1× non-essential amino acids, and 1 mM sodium pyruvate. Cells were spun at 1000 rpm for 3 minutes and the supernatant was carefully removed and discarded. The pellet was resuspended in 5 ml stimulation buffer and the cell density determined using the Vi-Cell automated cell counter. The cell suspension was diluted to a 0.2×10^6/ml suspension ready for plating. To all wells of a white 384-well Optiplate (Perkin Elmer #6007299) 5 μL of cells in stimulation buffer were dispensed (1,000 cells per well). Stimulation buffer consisted of HBSS (+Ca/+Mg) supplemented with 5 mM HEPES, 0.1% BSA stabiliser and 0.5 mM IBMX.
At the start of each assay day the potency of AVP was assessed and an EC80 concentration determined for subsequent compound profiling. Assays were performed by first an addition of 2.5 μl of control or test compound at 4× final concentration in stimulation buffer followed by 2.5 μl of AVP at 4× final concentration in stimulation buffer. After a 1 hour reaction, detection reagents were added by first an addition of 5 μl EU-cAMP tracer, followed by 5 μl ULight-anti-cAMP both diluted as per the manufacturer's instructions. After a one hour incubation, plates were ready to be read (signals then remained stable for up to 24 hours). Changes in time resolved fluorescence were monitored with excitation via a laser (337 nm) measuring both 615 nm and 665 nm emission wavelengths. […] For compound profiling, test compounds were dispensed by the Labcyte Echo (10-point curve, 1:3 dilutions) in a target 0.1 μl volume then diluted 750-fold in stimulation buffer containing 3% DMSO prior to addition to the cells. At the end of the incubation period, 2.5 μl of AVP in stimulation buffer was added at the previously determined EC80 concentration.
In-plate controls for the assay included a Tolvaptan concentration-response curve as the reference V2 antagonist and an AVP concentration-response curve to confirm the reproducibility of the EC80 used for the compound challenge.
(TR-FRET usually uses a lanthanide donor and a delayed reading to cut background.)

Assay [2] has as its target T2, human Oxytocin Receptor (hOTR) (Homo sapiens, UniProt P30559).
T2 construct: host or cells: CHEM-1 (ready-to-assay frozen cells)
T2 sequence (P30559 1-389): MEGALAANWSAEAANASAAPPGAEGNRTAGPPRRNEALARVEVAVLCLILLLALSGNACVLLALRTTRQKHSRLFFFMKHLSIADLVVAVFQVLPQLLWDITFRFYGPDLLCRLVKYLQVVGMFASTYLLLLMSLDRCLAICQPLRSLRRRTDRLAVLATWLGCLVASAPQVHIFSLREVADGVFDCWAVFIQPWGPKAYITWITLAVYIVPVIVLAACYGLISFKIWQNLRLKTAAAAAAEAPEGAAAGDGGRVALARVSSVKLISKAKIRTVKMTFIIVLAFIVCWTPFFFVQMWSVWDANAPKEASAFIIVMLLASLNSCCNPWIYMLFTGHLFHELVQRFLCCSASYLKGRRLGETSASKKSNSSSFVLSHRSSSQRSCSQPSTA
The experiment in a line: Oxytocin receptor (OTR) antagonist assay (FLIPR calcium, CHEM-1-hOTR cells). It counts as cell-based. The procedure: This assay was performed in CHEM-1 cells expressing the human Oxytocin Receptor (hOTR) to determine the inhibitory effect of the compounds of the invention on the human Oxytocin receptor. Oxytocin evokes an increase in intracellular calcium in CHEM-1-hOTR cells which is measured in a fluorescence assay on the FLIPR^TETRA using calcium sensitive dyes. Test compounds were assessed for their ability to affect the magnitude of the response to oxytocin, with antagonists showing a concentration-dependent reduction in the oxytocin-mediated fluorescence.
CHEM-1-hOTR ready was used to assay frozen cells (Eurofins #HTS09ORTA) which are supplied with a proprietary Media Component.
Day 1 of the assay: Cells were thawed in a 37° C. water bath and diluted with the supplied Media Component to a final volume of 10 ml. The cell suspension was centrifuged at 1000 rpm for 3 min at room temperature and the supernatant was discarded. The cell pellet was resuspended in Media Component (10.5 ml) and the cells (25 μL) were dispensed into a poly-D-lysine coated black, clear bottomed, 384-well plate. The plates were incubated overnight at 37° C., 5% CO2.
Day 2: At the start of each assay day the potency of oxytocin was assessed and an EC80 concentration was determined for subsequent compound profiling. Assays were performed using a two-step addition protocol on the FLIPR^TETRA; first addition of 5 μl of control or test compound at 10× final in assay buffer with 15 min incubation at 37° C., 5% CO2 followed by 10 μl of oxytocin at 6× final concentration in assay buffer. Changes in fluorescence were monitored for 3 min after both additions on the FLIPR^TETRA using 470-495 nm excitation and 515-575 nm emission wavelengths. The assay buffer consisted of HBSS (+Ca/+Mg) supplemented with 20 mM HEPES, and for the preparation of the oxytocin agonist only, 0.1% w/v bovine serum albumin. The assay was initiated by the removal of growth media from the cells and replaced with 45 μl of Calcium-6 dye (Molecular Devices) prepared at 1× in assay buffer. Cells were loaded with dye for 60-90 min at 37° C., 5% CO2 before initiation of the FLIPR^TETRA protocol. […] For compound profiling, test compounds were first serially diluted in DMSO (10-point curve, 1:3 dilutions) then diluted 33.3-fold in assay buffer prior to addition to the dye loaded cells on the FLIPR^TETRA. At the end of the incubation period 10 μl of oxytocin in assay buffer containing 0.1% BSA was added at the previously determined EC80 concentration.
In-plate controls for the assay included a L-368,899 concentration-response curve as the reference OTR antagonist and an oxytocin concentration-response curve to confirm the reproducibility of the EC80 used for the compound challenge.

T1 sequence (P30518 whole entry): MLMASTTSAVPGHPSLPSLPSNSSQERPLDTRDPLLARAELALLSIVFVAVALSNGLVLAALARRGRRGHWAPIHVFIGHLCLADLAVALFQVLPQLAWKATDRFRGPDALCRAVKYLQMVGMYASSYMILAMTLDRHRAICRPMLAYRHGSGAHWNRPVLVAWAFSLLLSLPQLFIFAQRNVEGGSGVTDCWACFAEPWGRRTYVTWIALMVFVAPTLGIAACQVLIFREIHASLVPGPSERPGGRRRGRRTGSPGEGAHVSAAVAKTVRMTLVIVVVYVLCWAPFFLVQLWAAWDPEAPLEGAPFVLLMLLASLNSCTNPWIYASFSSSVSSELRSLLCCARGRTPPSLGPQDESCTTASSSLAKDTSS

Regarding `CC1COc2cc(F)ccc2N1C(=O)N1CC2(C1)CN(c1cc(C#N)ccn1)C2` (single isomer, unassigned) [20-3-B], the IC50 in assay [1] and in assay [2] was 100 to 500 nM in each case.
As for `Cc1nccnc1N1CC2(CN(C(=O)N3c4ccc(Cl)cc4OCC3C)C2)C1` (centres unmarked) [20-10], the IC50 – broadly, the concentration needed to halve the response being measured – in assay [1] is 500 to 1000 nM; in assay [2], 100 to 500 nM.
For the compound `CC1CN(C(=O)N2CC3(C2)CN(c2ccc(F)cn2)C3)c2ccc(F)cc2O1` (single isomer, unassigned) [9-4-B], the IC50 in assay [1] and in assay [2] was not below 1000 nM throughout.
As for `O=C(N1CC2(C1)CN(c1cnccn1)C2)N1CCC(O)c2cc(Cl)ccc21` (centres unmarked) [13-3], the IC50 in assay [1] and in assay [2] was not below 1000 nM throughout.
`CC1COc2cc(Cl)ccc2N1C(=O)N1CC2(C1)CN(c1noc3cccnc13)C2` (single isomer, unassigned) [18-3-B]: the IC50 in assay [1] was 100 to 500 nM; in assay [2], not below 1000 nM.
`CC1COc2cc(Cl)c(F)cc2N1C(=O)N1CC2(C1)CN(c1ncccn1)C2` (centres unmarked) [19-2]: the figures for the IC50 in assay [1] and in assay [2] were not below 1000 nM and 500 to 1000 nM, respectively.
With `COc1ccnc(N2CC3(CN(C(=O)N4c5ccc(Cl)cc5OCC4C)C3)C2)c1` (single isomer, unassigned) [20-8-B], the IC50 was less than 100 nM in assay [1] and 100 to 500 nM in assay [2].
As for `CC1COc2cc(F)ccc2N1C(=O)N1CC2(C1)CN(c1ccc(F)cn1)C2` (centres unmarked) [12-1, (7-fluoro-3-methyl-2,3-dihydro-4H-benzo[b][1,4]oxazin-4-yl)(6-(5-fluoropyridin-2-yl)-2,6-diazaspiro[3.3]heptan-2-yl)methanone], the results for the IC50 in assay [1] and in assay [2] were 100 to 500 nM and 500 to 1000 nM, respectively.
For `CC1COc2cc(Cl)ccc2N1C(=O)N1CC2(C1)CN(c1cccnc1)C2` (centres unmarked) [20-1, (7-chloro-3-methyl-2,3-dihydro-4H-benzo[b][1,4]oxazin-4-yl)(6-(pyridin-3-yl)-2,6-diazaspiro[3.3]heptan-2-yl)methanone], the IC50 was not below 1000 nM in assay [1] and 100 to 500 nM in assay [2].
Regarding `Cc1cncc(N2CC3(CN(C(=O)N4c5ccc(F)cc5OCC4C)C3)C2)n1` (centres unmarked) [20-2], the IC50 in assay [1] was less than 100 nM; in assay [2] it was 100 to 500 nM.
Take `Cc1ccnc(N2CC3(CN(C(=O)N4c5ccc(F)cc5OCC4C)C3)C2)c1` (single isomer, unassigned) [20-4-B]: the half-maximal inhibitory concentration (IC50) in assay [1] is less than 100 nM; in assay [2] it was 500 to 1000 nM.
For the compound `Cc1cncc(N2CC3(CN(C(=O)N4c5ccc(F)cc5OCC4C)C3)C2)n1` (single isomer, unassigned) [20-2-B], the IC50 is less than 100 nM in assay [1] and 100 to 500 nM in assay [2].
For `CC1COc2cc(Cl)c(F)cc2N1C(=O)N1CC2(C1)CN(c1cccnn1)C2` (single isomer, unassigned) [19-4-A], the IC50 is not below 1000 nM in assay [1] and 100 to 500 nM in assay [2].
For `Cc1ccnc(N2CC3(CN(C(=O)N4c5ccc(Cl)cc5OCC4C)C3)C2)n1` (single isomer, unassigned) [20-12-B], the IC50 in assay [1] and in assay [2] was less than 100 nM in each case.
Regarding `O=C(N1CC2(C1)CN(c1cnccn1)C2)N1CCC(O)c2cc(Cl)ccc21` (single isomer, unassigned) [13-3-A], the IC50 in assay [1] and in assay [2] was not below 1000 nM in each case.
Regarding `O=C(N1CC2(C1)CN(c1ccc(F)cn1)C2)N1CCOc2cc(Cl)ccc21` [9-7], the IC50 in assay [1] and in assay [2] was not below 1000 nM each time.
For `CC1COc2cc(Cl)c(F)cc2N1C(=O)N1CC2(C1)CN(c1cccnn1)C2` (centres unmarked) [19-4], the IC50 is not below 1000 nM in assay [1] and 100 to 500 nM in assay [2].
As for `O=C(N1CC2(C1)CN(c1ccccn1)C2)N1CCC(O)c2cc(Cl)ccc21` (single isomer, unassigned) [13-2-A], the IC50 was not below 1000 nM in assay [1] and 500 to 1000 nM in assay [2].
Turning to `O=C(N1CC2(C1)CN(c1ccccn1)C2)N1CCC(O)c2cc(Cl)ccc21` (single isomer, unassigned) [13-2-B], the half-maximal inhibitory concentration (IC50) in assay [1] was not below 1000 nM; in assay [2] it was 500 to 1000 nM.
As to `CC1Cc2cc(Cl)ccc2N1C(=O)N1CC2(C1)CN(c1ccc(F)cn1)C2` (centres unmarked) [8-16], the IC50 in assay [1] and in assay [2] was less than 100 nM in each case.
On to `CC1COc2cc(Cl)ccc2N1C(=O)N1CC2(C1)CN(c1cc(C#N)ccn1)C2` (single isomer, unassigned) [20-6-B], for which the IC50 in assay [1] and in assay [2] was less than 100 nM throughout.
Regarding `CC1COc2cc(Cl)ccc2N1C(=O)N1CC2(C1)CN(c1cc(C#N)ccn1)C2` (centres unmarked) [20-6], the 50% inhibitory concentration (IC50) in assay [1] and in assay [2] was less than 100 nM in each case.
Turning to `CC1CN(C(=O)N2CC3(C2)CN(c2ccc(F)cn2)C3)c2ccc(Cl)cc2O1` (single isomer, unassigned) [9-3-A], the IC50 in assay [1] is not below 1000 nM; in assay [2] it was 500 to 1000 nM.
For the compound `Cc1nccnc1N1CC2(CN(C(=O)N3c4ccc(Cl)cc4OCC3C)C2)C1` (single isomer, unassigned) [20-10-A], the IC50 in assay [1] and in assay [2] was 100 to 500 nM throughout.
On to `Cc1ccnc(N2CC3(CN(C(=O)N4c5ccc(Cl)cc5OCC4C)C3)C2)c1` (centres unmarked) [20-11], for which the figures for the IC50 in assay [1] and in assay [2] were less than 100 nM and 100 to 500 nM, respectively.
For `O=C(N1CC2(C1)CN(c1ccc(F)cn1)C2)N1CCC(F)c2cc(Cl)ccc21` (centres unmarked) [14-1, (6-chloro-4-fluoro-3,4-dihydroquinolin-1(2H)-yl)(6-(5-fluoropyridin-2-yl)-2,6-diazaspiro[3.3]heptan-2-yl)methanone], the IC50 in assay [1] and in assay [2] was not below 1000 nM throughout.
With `Cc1nc(N2CC3(CN(C(=O)N4c5ccc(Cl)cc5OCC4C)C3)C2)ncc1F` (centres unmarked) [20-7], the IC50 in assay [1] and in assay [2] was 100 to 500 nM throughout.
Regarding `O=C(N1CC2(C1)CN(c1cnccn1)C2)N1CCOCc2cc(Cl)ccc21` [8-13], the IC50 in assay [1] and in assay [2] was not below 1000 nM throughout.
